# Assay results as given in patent US20170253607A1, “LONG-ACTING HIV PROTEASE INHIBITOR” (Shionogi & Co., Ltd., priority 2014, published 2017).
# Biological target: HIV-1 PR (Human immunodeficiency virus type 1 group M subtype B, UniProt P04585)
# Assay: HIV-protease inhibitory activity assay (FRET peptide substrate)
# Type: biochemical
# Conditions: Test Example 1
# Summary of the method: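 HIV-1 PR (0.83 ng) preincubated with compounds 20 min at room temperature in 0.1 mol/L NaAc, 0.5 mol/L NaCl, 1 mmol/L EDTA, 1 mmol/L DTT, 0.05% Tween 20, pH 4.8. Cleavage of HiLyte Fluor 488/QXL 520 FRET peptide (2 μmol/L) read after 60 minutes at 485/535 nm; IC50 from four-parameter logistic fit.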
row,SMILES,IC50 [nM]
1,COc1ccc(S(=O)(=O)N(CC(C)C)CC(O)C(Cc2ccc(N(C)Cc3ncccc3-c3cccc(-c4sc5c(c4C(=O)O)CC(C)(C)CC5)c3)cc2)NC(=O)OC2COC3(C)OCCC23)cc1 (stereo not drawn) [Compound I-512],1.63
2,COc1ccc(S(=O)(=O)N(CC(C)C)CC(O)C(Cc2ccc(NCc3ccccc3-c3ccc(OC(F)(F)F)cc3C(=O)O)cc2)NC(=O)OC2COC3(C)OCCC23)cc1 (stereo not drawn) [Compound I-499],1.73
3,COc1ccc(S(=O)(=O)N(CC(C)C)CC(O)C(Cc2ccc(N(C)C3CCN(c4ccccc4-c4sc5c(c4C(=O)O)CC(C)(C)CC5)C3)cc2)NC(=O)OC2COC3(C)OCCC23)cc1 (stereo not drawn) [Compound I-239],2.74
4,COc1ccc(S(=O)(=O)N(CC(C)C)CC(O)C(Cc2ccc(COc3ccc4c(c3C(=O)O)CC(C)(C)CC4)cc2)NC(=O)OC2COC3OCCC23)cc1 (stereo not drawn) [Compound I-811],0.81
5,CN(Cc1ccccc1C(=O)Nc1sc2c(c1C(=O)O)CC(C)(C)CC2)c1ccc(CC(NC(=O)OC2COC3(C)OCCC23)C(O)CN(CC2CCCC2)S(=O)(=O)c2ccc3c(c2)OCO3)cc1 (stereo not drawn) [Compound I-681],7.97
6,COc1ccc(S(=O)(=O)N(CC(C)C)CC(O)C(Cc2ccc(OCc3cccc(-c4ccc(F)cc4F)c3C(=O)O)cc2)NC(=O)OC2COC3(C)OCCC23)cc1 (stereo not drawn) [Compound I-153],1.08
7,COc1ccc(S(=O)(=O)N(CC(C)C)CC(O)C(Cc2ccc(NCc3cc(C(F)(F)F)ccc3C(=O)Nc3sc4c(c3C(=O)O)CC(C)(C)CC4)cc2)NC(=O)OC2COC3(C)OCCC23)cc1 (stereo not drawn) [Compound I-691],6.44
8,COc1ccc(S(=O)(=O)N(CC(C)C)CC(O)C(Cc2ccc(N(C)Cc3cc(-c4sc5c(c4C(=O)O)CC(C)(C)CC5)cc4ccccc34)cc2)NC(=O)OC2COC3(C)OCCC23)cc1 (stereo not drawn) [Compound I-703],4.6
9,COc1ccc(S(=O)(=O)N(CC(C)C)C[C@@H](O)[C@H](Cc2ccc(NC(=O)Nc3sc4c(c3C(=O)O)CC(C)(C)CC4)cc2)NC(=O)O[C@H]2CO[C@@]3(C)OCC[C@@H]23)cc1 [Compound I-192],2.27
10,COc1ccc(S(=O)(=O)N(CC(C)C)CC(O)C(Cc2ccc(NCc3nc4ccccc4cc3C(=O)Nc3sc4c(c3C(=O)O)CC(C)(C)CC4)cc2)NC(=O)OC2COC3OCCC23)cc1 (stereo not drawn) [Compound I-885],3.48
11,COc1ccc(S(=O)(=O)N(CC(C)C)CC(O)C(Cc2ccc(OCc3nccnc3-c3sc4c(c3C(=O)O)CC(C)(C)CC4)cc2)NC(=O)OC2COC3(C)OCCC23)cc1 (stereo not drawn) [Compound I-187],2.21
12,COc1ccc(S(=O)(=O)N(CC(C)C)CC(O)C(Cc2ccc(N(C)CC3CCCCC3c3sc4c(c3C(=O)O)CC(C)(C)CC4)cc2)NC(=O)OC2COC3(C)OCCC23)cc1 (stereo not drawn) [Compound I-359],3.77
13,COc1ccc(S(=O)(=O)N(CC(C)C)CC(O)C(Cc2ccc(NCc3cc(-c4sc5c(c4C(=O)O)CC(C)(C)CC5)ccc3F)cc2)NC(=O)OC2COC3(C)OCCC23)cc1 (stereo not drawn) [Compound I-280],3.24
14,COc1ccc(S(=O)(=O)N(CC(C)C)CC(O)C(Cc2ccc(N(C)Cc3cc(N4CCOCC4)ccc3-c3sc4c(c3C(=O)O)CC(C)(C)CC4)cc2)NC(=O)OC2COC3(C)OCCC23)cc1 (stereo not drawn) [Compound I-700],2.02
15,COc1ccc(S(=O)(=O)N(CC(C)C)CC(O)C(Cc2ccc(NCc3c(-c4sc5c(c4C(=O)O)CC(C)(C)CC5)cccc3[N+](=O)[O-])cc2)NC(=O)OC2COC3(C)OCCC23)cc1 (stereo not drawn) [Compound I-546],1.86
16,COc1ccc(S(=O)(=O)N(CC(C)C)CC(O)C(Cc2ccc(N(C)C(=O)Nc3sc4c(c3C(=O)O)CC(C)(C)CC4)cc2)NC(=O)OC2COC3(C)OCCC23)cc1 (stereo not drawn) [Compound I-220],2.08
17,COc1ccc(S(=O)(=O)N(CC(C)C)CC(O)C(Cc2ccc(NCc3ccccc3-c3cc4c(cc3C(=O)O)OCCO4)cc2)NC(=O)OC2COC3(C)OCCC23)cc1 (stereo not drawn) [Compound I-496],1.81
18,COc1ccc(S(=O)(=O)N(CC(C)C)CC(O)C(Cc2ccc(NC3CCCc4c(-c5sc6c(c5C(=O)O)CC(C)(C)CC6)cccc43)cc2)NC(=O)OC2COC3(C)OCCC23)cc1 (stereo not drawn) [Compound I-751],15.7
19,COc1ccc(S(=O)(=O)N(CC(C)C)C[C@@H](O)[C@H](Cc2ccc(OCc3ccc(-c4ccc(F)cc4F)cc3-c3noc(=O)[nH]3)cc2)NC(=O)O[C@H]2CO[C@@]3(C)OCC[C@@H]23)cc1 [Compound I-21],1.39
20,COc1ccc(S(=O)(=O)N(CC(C)C)CC(O)C(Cc2ccc(N(C)c3ccc(-c4sc5c(c4C(=O)O)CC(C)(C)CC5)cc3)cc2)NC(=O)OC2COC3(C)OCCC23)cc1 (stereo not drawn) [Compound I-469],5.16
21,COc1ccc(S(=O)(=O)N(CC(C)C)CC(O)C(Cc2ccc(NCc3ccccc3-c3cccc4[nH]c(C(=O)O)cc34)cc2)NC(=O)OC2COC3(C)OCCC23)cc1 (stereo not drawn) [Compound I-502],1.87
22,CC(C)CN(C[C@@H](O)[C@H](Cc1ccccc1)NC(=O)O[C@H]1CO[C@@]2(C)OCC[C@@H]12)S(=O)(=O)c1ccc2nc(NCc3sc4c(c3C(=O)O)CC(C)(C)CC4)sc2c1 [Compound I-26],2.01
23,COc1ccc(S(=O)(=O)N(CC(C)C)CC(O)C(Cc2ccc(OCc3ccccc3-c3ccc4c(c3)C(=O)C(c3ccc(F)cc3)C4=O)cc2)NC(=O)OC2COC3(C)OCCC23)cc1 (stereo not drawn) [Compound I-70],1.06

row,SMILES,IC50 [nM]
1,COc1ccc(S(=O)(=O)N(CC(C)C)CC(O)C(Cc2ccc(OCCN(C)c3ccc(C#N)cc3-c3sc4c(c3C(=O)O)CC(C)(C)CC4)cc2)NC(=O)OC2COC3(C)OCCC23)cc1 (stereo not drawn) [Compound I-257],4.98
2,COc1ccc(S(=O)(=O)N(CC(C)C)CC(O)C(Cc2ccc(NCc3ccc(-c4sc5c(c4C(=O)O)CC(C)(C)CC5)c(C)c3)cc2)NC(=O)OC2COC3(C)OCCC23)cc1 (stereo not drawn) [Compound I-534],4.11
3,COc1ccc(S(=O)(=O)N(CC(C)C)CC(O)C(Cc2ccc(N(C)Cc3cc(N4CCCCC4=O)ccc3-c3sc4c(c3C(=O)O)CC(C)(C)CC4)cc2)NC(=O)OC2COC3(C)OCCC23)cc1 (stereo not drawn) [Compound I-731],1.96
4,COc1ccc(S(=O)(=O)N(CC(C)C)CC(O)C(Cc2ccc(OCc3cccc(-c4sc5c(c4C(=O)O)CC(C)(C)CC5)c3C)cc2)NC(=O)OC2COC3(C)OCCC23)cc1 (stereo not drawn) [Compound I-92],1.88
5,COc1ccc(S(=O)(=O)N(CC(C)C)CC(O)C(Cc2ccc(N(C)Cc3nc(N4CCCC4)sc3-c3ccc(-c4sc5c(c4C(=O)O)CC(C)(C)CC5)cc3)cc2)NC(=O)OC2COC3(C)OCCC23)cc1 (stereo not drawn) [Compound I-715],5.31
6,CC(C)CN(CC(O)C(Cc1ccccc1)NC(=O)OC1COC2OCCC12)S(=O)(=O)c1ccc(NCc2sc3c(c2C(=O)O)CC(C)(C)CC3)cc1 (stereo not drawn) [Compound I-816],5.78
7,COc1ccc(S(=O)(=O)N(CC(C)C)CC(O)C(Cc2ccc(OC3CN(c4cccc(-c5sc6c(c5C(=O)O)CC(C)(C)CC6)c4)C3)cc2)NC(=O)OC2COC3(C)OCCC23)cc1 (stereo not drawn) [Compound I-360],4.54
8,COc1ccc(S(=O)(=O)N(CC(C)C)CC(O)C(Cc2ccc(N3Cc4ccc(-c5sc6c(c5C(=O)O)CC(C)(C)CC6)cc4C3)cc2)NC(=O)OC2COC3(C)OCCC23)cc1 (stereo not drawn) [Compound I-222],2.9
9,COc1ccc(S(=O)(=O)N(CC(C)C)CC(O)C(Cc2ccc(N(Cc3ccccc3-c3sc4c(c3C(=O)O)CC(C)(C)CC4)CC3CCCC3)cc2)NC(=O)OC2COC3(C)OCCC23)cc1 (stereo not drawn) [Compound I-456],13.6
10,COc1ccc(S(=O)(=O)N(CC(C)C)CC(O)C(Cc2ccc(N3CCc4cccc(-c5sc6c(c5C(=O)O)CC(C)(C)CC6)c4C3)cc2)NC(=O)OC2COC3(C)OCCC23)cc1 (stereo not drawn) [Compound I-191],2.22
11,COc1ccc(S(=O)(=O)N(CC(C)C)CC(O)C(Cc2ccc(OC3CN(c4ccc(-c5sc6c(c5C(=O)O)CC(C)(C)CC6)cc4)C3)cc2)NC(=O)OC2COC3(C)OCCC23)cc1 (stereo not drawn) [Compound I-361],6.22
12,CC(C)CN(CC(O)C(Cc1ccc(OCc2ccc(C(=O)O)c(-c3ccc(F)cc3F)n2)cc1)NC(=O)OC1COC2(C)OCCC12)S(=O)(=O)c1ccc2ncsc2c1 (stereo not drawn) [Compound I-156],1.3
13,COc1ccc(S(=O)(=O)N(CC(C)C)CC(O)C(Cc2ccc(N(C)CC3COCCC3c3sc4c(c3C(=O)O)CC(C)(C)CC4)cc2)NC(=O)OC2COC3(C)OCCC23)cc1 (stereo not drawn) [Compound I-401],1.77
14,COc1ccc(S(=O)(=O)N(CC(C)C)CC(O)C(Cc2ccc(NC(=O)c3sc4c(c3C(=O)O)CC(C)(C)CC4)cc2)NC(=O)OC2COC3(C)OCCC23)cc1 (stereo not drawn) [Compound I-208],1.86
15,COc1ccc(S(=O)(=O)N(CC(C)C)CC(O)C(Cc2ccc(OCC3CCCN3c3ccc(C#N)cc3-c3sc4c(c3C(=O)O)CC(C)(C)CC4)cc2)NC(=O)OC2COC3(C)OCCC23)cc1 (stereo not drawn) [Compound I-333],11
16,COc1ccc(S(=O)(=O)N(CC(C)C)CC(O)C(Cc2ccc(NCc3cc(C)c(-c4sc5c(c4C(=O)O)CC(C)(C)CC5)cc3C)cc2)NC(=O)OC2COC3(C)OCCC23)cc1 (stereo not drawn) [Compound I-556],5.45
17,COc1ccc(S(=O)(=O)N(CC(C)C)CC(O)C(Cc2ccc(OC3CC(N(C)c4ccccc4-c4sc5c(c4C(=O)O)CC(C)(C)CC5)C3)cc2)NC(=O)OC2COC3(C)OCCC23)cc1 (stereo not drawn) [Compound I-364],5.39
18,COc1ccc(S(=O)(=O)N(CC(C)C)CC(O)C(Cc2ccc(NCc3ccc(C=CC(=O)Nc4sc5c(c4C(=O)O)CC(C)(C)CC5)cc3)cc2)NC(=O)OC2COC3(C)OCCC23)cc1 (stereo not drawn) [Compound I-444],5.1
19,CC(C)CN(CC(O)C(Cc1ccc(OCc2ccc(-c3ccccc3)cc2C(=O)N(C)C)cc1)NC(=O)OC1COC2(C)OCCC12)S(=O)(=O)c1ccc2ncsc2c1 (stereo not drawn) [Compound I-161],0.94
20,COc1ccc(S(=O)(=O)N(CC(C)C)CC(O)C(Cc2ccc(NCc3ccccc3C(=O)Nc3sc4c(c3C(=O)O)CC(C)(C)CC4)cc2)NC(=O)OC2COC3(C)OCCC23O)cc1 (stereo not drawn) [Compound I-891],2.88
21,COc1ccc(S(=O)(=O)N(CC(C)C)CC(O)C(Cc2ccc(N3CCC(C(=O)Nc4sc5c(c4C(=O)O)CC(C)(C)CC5)C3)cc2)NC(=O)OC2COC3OCCC23)cc1 (stereo not drawn) [Compound I-865],2.21
22,COc1ccc(S(=O)(=O)N(CC(C)C)CC(O)C(Cc2ccc(NCc3ccccc3-c3nc4n(c3C(=O)O)CCCC4)cc2)NC(=O)OC2COC3(C)OCCC23)cc1 (stereo not drawn) [Compound I-368],2.11
